Source: patent publication US7160859B2, “Mst1 modulation of apoptosis in cardiac tissue and modulators of Mst1 for treatment and prevention of cardiac disease” (University of Medicine & Dentistry of New Jersey, priority 2002, dated 2007)
One block for each compound: values may come before it.

Key:
caspase-3 = assay: Immunoblot with anti-cleaved caspase-3 antibody; type: cell-based, rat; settings: Doxo, 6 and 24 hour time points
Description: For analyses of Mst1, cells were lysed in a Lysis Buffer A, containing 25 mmol/L NaCl, 25 mmol/L Tris (pH 7.4), 1 mmol/L Na3VO4, 10 mmol/L NaF, 10 mmol sodium pyrophosphate, 0.5 mmol/L EGTA, 0.5 mmol/L AEBSF, 0.5 μ/mL leupeptin, 0.5 μ/mL aprotinin. Samples containing the equal amount of protein were subjected to SDS-PAGE. Proteins were transferred onto polyvinylidene fluoride microporous membranes (Bio Rad, Hercules, Calif.) and probed with primary antibodies. We used anti-Mst1 monoclonal antibody (Transduction Laboratory, Lexington, Ky.) for detection of the carboxyl terminus of Mst1. Affinity purified rabbit polyclonal antibody was raised against animo-terminal ETVQLRNPPRRQLKC (pAb-15) (SEQ ID NO:4) (BioSource International, Camarillo, Calif.) for detection of the amino-terminus of Mst1. Blots were then probed by horseradish peroxidase-conjugated anti-mouse IgG or anti-rabbit IgG (Cell Signaling Technolog Inc., Beverly, Mass.). Antigen-antibody complexes were visualized by the enhanced chemiluminescence system (ECL, Amersham/Pharmacia, Piscataway, N.J.). Polyclonal antibodies raised against cleaved caspase-3 (Cell Signaling Technology Inc.) were used to determine activation of caspase-3, as described (35).

cardiac myocytes [1] = assay: Morphology of cardiac myocytes (cell shrinkage, cell death); type: cell-based, rat; settings: within 6 h
cardiac myocytes [2] = assay: Cell Death Detection ELISA: cytoplasmic accumulation of mono- and oligo-nucleosomes (DNA fragmentation); type: cell-based, rat
Procedure: Primary cultures of ventricular cardiac myocytes were prepared from 1-day-old Crl: (WI) BR-Wistar rats (Charles River Laboratories, Wilmington, Mass.) as described previously (34). A cardiac myocyte rich fraction was obtained by centrifugation through the discontinuous Percoll gradient as described (34). Cells were cultured in the cardiac myocyte culture medium containing Dulbecco's modified Eagle medium (DMEM)/F12 supplemented with 5% horse serum, 4 μg/mL transferrin, 0.7 ng/mL sodium selenite (GIBCO), 2 g/L bovine serum albumin (fraction V), 3 mmol/L pyruvic acid, 15 mmol/L HEPES, 100 μmol/L ascorbic acid, 100 μg/mL ampicillin, 5 μg/mL linoleic acid and 100 μmol/L 5-bromo-2′-deoxyuridine (Sigma). We obtained myocyte cultures in which more than 95% were myocytes, as assessed by immunofluorescence staining with a monoclonal antibody against sarcomeric myosin (MF20). Culture media were changed to serum-free at 24–36 h and then subjected to adenovirus transduction. Myocytes were cultured in the serum-free condition for 48 h before experiments.
Histone-associated DNA fragments were quantified by the Cell Death Detection ELISA (Roche, Indianapolis, Ind.) according to the manufacturer's instruction as described (35) with minor modification for sample preparation. In brief, myocytes were rinsed with PBS three times in order to remove nucleosomes leaked out from necrotic cells and then incubated with the lysis buffer for 30 min. The supernatant containing mono- and oligonucleosomes from the cytoplasmic fraction of apoptotic cells was used for further analyses. DNA fragmentation of the tissue samples was determined by DNA laddering assays. Genomic DNA containing small molecular weight fragments was isolated and analyzed by agarose gel electrophoresis as described (36).

caspase-9 = assay: Western blot of caspase-9 cleavage; type: cell-based, rat; settings: Doxo, 6 and 24 hour time points
[3] = system: Neonatal rat cardiac myocytes; assay: Phenylephrine-induced hypertrophy of cultured cardiac myocytes; type: cell-based; settings: PE 10 μM 48 h, LacZ virus-transduced myocytes
Description: We have previously and above shown that mammalian sterile-20 like kinase 1 (Mst1) plays an important role in mediating cardiac myocyte apoptosis in response to ischemia/reperfusion and doxorubicin treatment. Cardiac specific overexpression of Mst1 in transgenic mice (Tg-Mst1) increases cardiac myocyte apoptosis in the heart and the mice develop dilated cardiomyopathy (DCM) and congestive heart failure within 3 months of age. […] Lack of compensatory cardiac myocyte hypertrophy may adversely affect LV function of Tg-Mst1 because operation of the Frank Starling mechanism could be less efficient at the individual cell level. This study was undertaken in order to elucidate if transient expression of Mst1 has a direct anti-hypertrophic effects in cultured cardiac myocytes in vitro. Neonatal rat cardiac myocytes were transduced with adenoviral vectors (10 MOI) in serum-free conditions for 48 h and then treated with phenylephrine (PE, 10 μM) for 48 h. Phenylephrine stimulates hypertrophy of cardiac myocytes in normal animals. Treatment of LacZ virus-transduced myocytes with PE caused a 2.4 fold increase in the cell size and a 1.7 fold increase in protein/DNA content. […] In summary, Mst1 has a direct anti-hypertrophic effect upon PE-treated cultured cardiac myocytes, possibly affecting other signaling mechanisms, including ERKs.

Mst1 = assay: In gel myelin basic protein (MBP) kinase assay of cardiac myocyte lysates; type: cell-based, rat; settings: in the presence of DEVD-CHO, 100 μM
Procedure: FIGS. 1A, 1B, 1C, 1D and 1E depict Mst1 activity assessed on treatment of cardiac myocytes with chelerythrine (Chele) or calyculin A. (A) Cardiac myocytes were treated with indicated concentrations of chelerythrine for 1 h. Cell lysates were subjected to in-gel myelin basic protein (MBP) kinase assay as well as immunoblotting with anti-cleaved caspase-3 antibody. Results are representative of more than five experiments. (B) Cardiac myocytes were treated with chelerythrine (Chele). In the right panel, myocytes were transduced with either control virus or adenovirus harboring XIAP 48 hours before Chele application. Cell lysates were subjected with immune complex in-gel MBP kinase assays, using anti-Mst1 polyclonal antibody (pAb-15). The activity of cleaved Mst1 is shown. (C) Cardiac myocytes were treated with Chele for the indicated durations. […]
Primary cultures of ventricular cardiac myocytes were prepared from 1-day-old Crl: (WI) BR-Wistar rats (Charles River Laboratories, Wilmington, Mass.) as described previously (34). […] We obtained myocyte cultures in which more than 95% were myocytes, as assessed by immunofluorescence staining with a monoclonal antibody against sarcomeric myosin (MF20). […]

activation (cleavage) of caspase-3 (caspase-3): time dependent manner
Compound: COc1cccc2c1C(=O)c1c(O)c3c(c(O)c1C2=O)C[C@@](O)(C(=O)CO)C[C@@H]3O[C@H]1C[C@H](N)[C@H](O)[C@H](C)O1 [Dox, Doxorubicin]
concentrations that dose-dependently induced cell shrinkage (cardiac myocytes [1]): 0.1 to 3 µM
OD405 value (DNA fragmentation ELISA) (cardiac myocytes [2]; 6 h treatment with 0.5 μM Dox, control virus): 0.69
activation (cleavage) of caspase-9 (caspase-9): time dependent manner

Compound: CNC[C@H](O)c1cccc(O)c1 [PE, phenylephrine]
increase in protein/DNA content [3]: 1.7 fold
increase in the cell size [3]: 2.4 fold

Compound: COC[C@@H]([C@H](O)[C@H](O)C(=O)NCC[C@H](C)c1nc(/C=C/C[C@@H]2O[C@]3(C[C@@H](O)[C@@H]2C)O[C@H]([C@H](C[C@H](O)[C@H](C)[C@H](O)[C@H](C)/C=C(C)/C(C)=C/C=C/C(C)=C\C#N)OC)[C@H](OP(=O)(O)O)C3(C)C)co1)N(C)C [calyculin A]
increase in cytoplasmic accumulation of oligo- and mono-nucleosomes (cardiac myocytes [2]; vs untreated, n=4, p<0.05): 4.3±1.4 fold
DNA fragmentation by calyculin A (cardiac myocytes [2]; with control virus): 5.6 fold

increased activities and cleavage of Mst1 by overexpression of Mst1 (Mst1): attenuated
Compound: DEVD-CHO
increases in DNA fragmentation by wild type Mst1 (cardiac myocytes [2]; in the presence of DEVD-CHO, 100 μM): inhibited
